# Target: Multidrug resistance-associated protein 1 (Homo sapiens, UniProt P33527)
# Assay: TP_TRANSPORTER: growth inhibition in hMRP1-expressing tobacco
# Format: functional, organism-based, (cultivar) Samsun NN
# Settings: nicotiana tabacum, in vivo
# Multidrug resistance-associated protein 1, sequence (P33527 whole entry): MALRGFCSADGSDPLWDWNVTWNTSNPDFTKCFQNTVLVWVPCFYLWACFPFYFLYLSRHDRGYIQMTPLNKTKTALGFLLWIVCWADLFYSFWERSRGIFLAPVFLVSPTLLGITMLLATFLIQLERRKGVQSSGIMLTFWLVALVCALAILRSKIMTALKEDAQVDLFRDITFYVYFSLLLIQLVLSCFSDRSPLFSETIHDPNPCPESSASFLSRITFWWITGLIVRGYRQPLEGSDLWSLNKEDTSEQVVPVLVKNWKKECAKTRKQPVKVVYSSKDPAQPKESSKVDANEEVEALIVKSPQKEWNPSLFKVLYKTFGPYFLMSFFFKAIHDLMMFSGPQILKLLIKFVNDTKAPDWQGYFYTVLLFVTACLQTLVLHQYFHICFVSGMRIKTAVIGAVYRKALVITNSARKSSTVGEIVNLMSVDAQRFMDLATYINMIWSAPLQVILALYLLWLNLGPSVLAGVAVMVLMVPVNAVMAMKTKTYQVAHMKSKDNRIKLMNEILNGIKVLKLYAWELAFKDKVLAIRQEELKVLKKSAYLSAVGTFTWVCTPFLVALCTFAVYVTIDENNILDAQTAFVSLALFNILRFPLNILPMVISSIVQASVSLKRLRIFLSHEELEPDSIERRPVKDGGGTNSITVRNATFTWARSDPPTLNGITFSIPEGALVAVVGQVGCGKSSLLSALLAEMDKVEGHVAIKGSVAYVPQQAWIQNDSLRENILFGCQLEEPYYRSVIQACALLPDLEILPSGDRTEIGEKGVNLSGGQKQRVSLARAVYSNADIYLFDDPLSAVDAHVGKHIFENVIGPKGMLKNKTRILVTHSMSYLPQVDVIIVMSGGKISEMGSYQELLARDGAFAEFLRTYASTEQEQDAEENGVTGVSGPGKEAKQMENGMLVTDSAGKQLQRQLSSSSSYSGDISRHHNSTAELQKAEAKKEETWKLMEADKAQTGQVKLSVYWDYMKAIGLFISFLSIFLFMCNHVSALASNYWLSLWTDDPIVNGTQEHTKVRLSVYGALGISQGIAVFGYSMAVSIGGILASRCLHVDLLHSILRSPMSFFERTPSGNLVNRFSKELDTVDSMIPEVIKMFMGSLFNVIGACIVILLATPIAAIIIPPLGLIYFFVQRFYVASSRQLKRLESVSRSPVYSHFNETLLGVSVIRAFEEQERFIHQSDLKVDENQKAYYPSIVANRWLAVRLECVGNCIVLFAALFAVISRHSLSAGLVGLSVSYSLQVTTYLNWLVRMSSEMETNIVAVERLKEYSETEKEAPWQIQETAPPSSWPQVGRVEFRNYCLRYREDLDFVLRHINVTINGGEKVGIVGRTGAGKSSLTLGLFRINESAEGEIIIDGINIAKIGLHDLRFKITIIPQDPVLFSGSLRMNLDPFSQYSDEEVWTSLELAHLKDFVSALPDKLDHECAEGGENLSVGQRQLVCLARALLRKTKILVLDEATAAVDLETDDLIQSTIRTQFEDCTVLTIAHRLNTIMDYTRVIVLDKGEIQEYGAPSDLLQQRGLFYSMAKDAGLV
substance,measurement,value
CADMIUM,Activity,substrate []

# Source: ChEMBL document CHEMBL2073829, “Heterologous expression of a mammalian ABC transporter in plant and its application to phytoremediation” (Plant Mol Biol, 2006)
